Laboratory results as given in the supplement of paper PMC10307832.

Legend:
Assay in all cases: relative viability (nuclei count vs DMSO), 5 days (fraction); higher = more cells survive
BI-D1870 + Trametinib = compound: CC(C)CCN1c2nc(Nc3cc(F)c(O)c(F)c3)ncc2N(C)C(=O)C1C [BI-D1870] + CC(=O)Nc1cccc(-n2c(=O)n(C3CC3)c(=O)c3c(Nc4ccc(I)cc4F)n(C)c(=O)c(C)c32)c1 [Trametinib] (partner 0.02 µM)
Summary of the method: (§1)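 For relative viability, nuclei counts in treated wells were divided by those in vehicle wells. Lung cancer cell lines had been pin-tool dosed in 1536-well plates the day after seeding and cultured for 5 days, then fixed and stained in one step (final 0.05% Triton X-100, 1% formaldehyde, 1 ug/ml Hoechst) and imaged at 4×. Doses were one drug alone or a fixed anchor-drug dose plus five library-drug doses (not always all listed) in √10 steps, and values are duplicate-plate medians.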

BI-D1870 + Bortezomib = compound: CC(C)CCN1c2nc(Nc3cc(F)c(O)c(F)c3)ncc2N(C)C(=O)C1C [BI-D1870] + CC(C)C[C@H](NC(=O)[C@H](Cc1ccccc1)NC(=O)c1cnccn1)B(O)O [Bortezomib] (partner 0.002 µM)
Summary of the method: as §1

Zebularine + Tozasertib = compound: O=c1ncccn1[C@@H]1O[C@H](CO)[C@@H](O)[C@H]1O [Zebularine] + Cc1cc(Nc2cc(N3CCN(C)CC3)nc(Sc3ccc(NC(=O)C4CC4)cc3)n2)n[nH]1 [Tozasertib] (partner 0.1 µM)
Summary of the method: as §1

Zebularine + Navitoclax = compound: O=c1ncccn1[C@@H]1O[C@H](CO)[C@@H](O)[C@H]1O [Zebularine] + CC1(C)CCC(c2ccc(Cl)cc2)=C(CN2CCN(c3ccc(C(=O)NS(=O)(=O)c4ccc(N[C@H](CCN5CCOCC5)CSc5ccccc5)c(S(=O)(=O)C(F)(F)F)c4)cc3)CC2)C1 [Navitoclax] (partner 0.5 µM)
Summary of the method: as §1

## UMC-11
BI-D1870 + Trametinib; first compound 0.04 µM
  relative viability: 0.701
BI-D1870 + Trametinib; first compound 0.1265 µM
  relative viability: 0.682
BI-D1870 + Trametinib; first compound 0.4 µM
  relative viability: 0.688
BI-D1870 + Trametinib; first compound 1.265 µM
  relative viability: 0.774
BI-D1870 + Trametinib; first compound 4 µM
  relative viability: 0.352
BI-D1870 + Bortezomib; first compound 0.04 µM
  relative viability: 0.788
BI-D1870 + Bortezomib; first compound 0.1265 µM
  relative viability: 0.647
BI-D1870 + Bortezomib; first compound 0.4 µM
  relative viability: 0.561
BI-D1870 + Bortezomib; first compound 1.265 µM
  relative viability: 0.712
BI-D1870 + Bortezomib; first compound 4 µM
  relative viability: 0.553
Zebularine + Tozasertib; first compound 1 µM
  relative viability: 0.191
Zebularine + Tozasertib; first compound 3.162 µM
  relative viability: 0.192
Zebularine + Tozasertib; first compound 10 µM
  relative viability: 0.219
Zebularine + Tozasertib; first compound 31.62 µM
  relative viability: 0.213
Zebularine + Tozasertib; first compound 100 µM
  relative viability: 0.207
Zebularine + Navitoclax; first compound 1 µM
  relative viability: 0.316
Zebularine + Navitoclax; first compound 3.162 µM
  relative viability: 0.328
Zebularine + Navitoclax; first compound 10 µM
  relative viability: 0.265
Zebularine + Navitoclax; first compound 31.62 µM
  relative viability: 0.344
Zebularine + Navitoclax; first compound 100 µM
  relative viability: 0.238
